Measured values reported in US6767907B2, “4-aryl-1-(indanmethyl dihydrobenzofuranmethyl or dihydrobenzothiophenemethyl) piperidines tetrahydropyridines or piperazines” (H. Lundbeck A/S, priority 1994, dated 2004).
pIC50: −log10 of the molar value.

Assays:
[1] = biological target: T1, 5-HT1A receptors (Rattus norvegicus, UniProt P19327); experiment: Inhibition of 3H-8-OH-DPAT binding to serotonin 5-HT1A receptors in rat brain in vitro; details: 3H-8-OH-DPAT 1 nM; for pIC50: membranes from rat brain minus cerebellum, read-out: 3H 8-OH DPAT (5-HT1A) binding, IC50
T1 construct: 5-HT1A receptors in membranes from rat brain minus cerebellum; from tissue; host or cells: rat brain minus cerebellum, membranes
T1 sequence (P19327 1-422): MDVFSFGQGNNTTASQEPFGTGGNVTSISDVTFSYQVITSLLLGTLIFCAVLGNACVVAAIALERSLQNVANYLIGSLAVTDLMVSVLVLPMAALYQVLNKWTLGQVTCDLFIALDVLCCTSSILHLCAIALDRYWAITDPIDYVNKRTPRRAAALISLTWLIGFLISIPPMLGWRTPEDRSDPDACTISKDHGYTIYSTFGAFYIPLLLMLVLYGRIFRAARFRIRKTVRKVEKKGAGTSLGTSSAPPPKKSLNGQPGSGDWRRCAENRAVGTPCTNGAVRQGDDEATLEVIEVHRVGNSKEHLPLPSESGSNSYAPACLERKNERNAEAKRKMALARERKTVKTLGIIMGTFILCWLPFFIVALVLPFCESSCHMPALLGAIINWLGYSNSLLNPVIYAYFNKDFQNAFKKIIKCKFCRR
Method: By this method the inhibition by drugs of the binding of the 5-HT1A agonist ^3H-8-OH-DPAT (1 nM) to 5-HT1A receptors in membranes from rat brain minus cerebellum is determined in vitro . Accordingly, this is a test for affinity for the 5-HT1A receptor. The test is performed as described by Hyttel et al., Drug. Dev. Res., 1988, 15, 389-404.

[2] = biological target: T2, 5-HT2A receptors (Rattus norvegicus, UniProt P14842); experiment: Inhibition of 3H-Ketanserin binding to 5-HT2 receptors in rat cortex in vitro; details: 3H-Ketanserin 0.5 nM; membranes from rat cortex; read-out: 3H Ketanserin (5-HT2A) binding, IC50
T2 construct: 5-HT2A receptors in membranes from rat is determined in vitro; from tissue; host or cells: rat cortex membranes
Method: Inhibition of ^3H-Ketanserin Binding to 5-HT2 Receptors in Rat Cortex in vitro.
By this method the inhibition by drugs of the binding of ^3H-Ketanserin (0.5 nM) to 5-HT2A receptors in membranes from rat is determined in vitro .

T2 sequence (P14842 whole entry): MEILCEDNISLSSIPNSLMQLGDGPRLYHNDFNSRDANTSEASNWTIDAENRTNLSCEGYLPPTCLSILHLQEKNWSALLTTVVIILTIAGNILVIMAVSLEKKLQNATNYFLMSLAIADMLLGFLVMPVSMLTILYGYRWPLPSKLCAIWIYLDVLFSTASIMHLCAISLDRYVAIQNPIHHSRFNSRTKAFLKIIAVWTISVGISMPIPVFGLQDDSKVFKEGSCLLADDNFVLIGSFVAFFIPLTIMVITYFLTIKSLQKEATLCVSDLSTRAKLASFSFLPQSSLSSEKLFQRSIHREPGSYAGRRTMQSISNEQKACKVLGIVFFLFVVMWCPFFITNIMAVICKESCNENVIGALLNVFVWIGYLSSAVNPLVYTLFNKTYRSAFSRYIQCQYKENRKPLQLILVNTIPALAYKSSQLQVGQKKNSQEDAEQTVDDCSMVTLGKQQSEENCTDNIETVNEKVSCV

Compound	pIC50 [1]	pIC50 [2]	melting point [°C]	inhibition at 0.1 µM ([1]; read-out: 3H 8-OH DPAT (5-HT1A) binding, % inhibition of binding at 100 nM, at 100 nM, rat brain membranes) [%]
CC(=O)Nc1ccc2c(c1)C(CN1CCN(c3cccc(Cl)c3)CC1)CC2 (stereo not drawn) [Compound 4e, 1-(6-Acetylaminoindan-1-ylmethyl)-4-(3-chlorophenyl)piperazine]	7.42	8.30	176 to 178	–
O=C(Nc1ccc2c(c1)C(CN1CCC(c3ccc(F)cc3)CC1)CC2)N1CCCC1 (stereo not drawn) [Compound 6c, 4-(4-fluorophenyl)-1-[6-(1-pyrrolidinyl)carbonylaminoindan-1-ylmethyl]piperidine]	5.09	8.00	190 to 193	–
O=C(Nc1ccc(F)cc1)Nc1ccc2c(c1)C(CN1CCC(c3ccc(F)cc3)CC1)CC2 (stereo not drawn) [Compound 5b, 1-[6-(4-Fluorophenyl)aminocarbonylaminoindan-1-ylmethyl]-4-(4-fluorophenyl)-piperidine]	< 4.00	7.43	235 to 238	–
CC(=O)Nc1ccc2c(c1)C(CN1CC=C(c3ccc(F)cc3)CC1)CC2 (stereo not drawn) [Compound 4h, 1-(6-Acetylaminoindan-1-ylmethyl)-4-(4-fluorophenyl)-1,2,3,6-tetrahydropyridine]	7.96	8.55	156 to 161	–
O=C(Nc1ccc2c(c1)C(CN1CCC(c3ccc(F)cc3)CC1)CC2)C1CC1 (stereo not drawn) [Compound 4j, 1-(6-Cyclopropylcarbonylaminoindan-1-ylmethyl)-4-(4-fluorophenyl)piperidine]	7.35	7.82	134 to 140	–
CC(=O)Nc1ccc2c(c1)C(CN1CCC(c3ccc(F)cc3)CC1)CC2 (stereo not drawn) [Compound 4a, 1-(6-Acetylaminoindan-1-ylmethyl)-4-(4-fluorophenyl)piperidine]	7.96	8.40	159 to 162	–
CC(=O)Nc1ccc2c(c1)C(CN1CCC(c3ccc(C)cc3)CC1)CC2 (stereo not drawn) [Compound 4n, 1-(6-Acetylaminoindan-1-ylmethyl)-4-(4-methylphenyl)piperidine]	7.57	8.41	173 to 175	–
O=C(Nc1ccc2c(c1)C(CN1CCC(c3ccc(F)cc3)CC1)CC2)C1CCCC1 (stereo not drawn) [Compound 4k, 1-(6-Cyclopentylcarbonylaminoindan-1-ylmethyl)-4-(4-fluorophenyl)piperidine]	6.62	7.52	177 to 178	–

Next, values leading:

pIC50 [1]	pIC50 [2]	melting point [°C]	inhibition at 0.1 µM ([1]; read-out: 3H 8-OH DPAT (5-HT1A) binding, % inhibition of binding at 100 nM, at 100 nM, rat brain membranes) [%]	Compound
5.92	8.17	175 to 180	–	CN(C)C(=S)Nc1ccc2c(c1)C(CN1CCC(c3ccc(F)cc3)CC1)CC2 (stereo not drawn) [Compound 6b, 1-(6-Dimethylaminothiocarbonylaminoindan-1-ylmethyl)-4-(4-fluorophenyl)piperidine]
6.30	8.68	152 to 155	–	CS(=O)(=O)Nc1ccc2c(c1)C(CN1CCC(c3ccc(F)cc3)CC1)CC2 (stereo not drawn) [Compound 4i, 4-(4-Fluorophenyl)-1-(6-methansulfonylaminoindan-1-ylmethyl)piperidine]
7.96	7.29	160 to 163	–	CC(=O)Nc1ccc2c(c1)C(CN1CCN(c3ccc(Cl)c(Cl)c3)CC1)CC2 (stereo not drawn) [Compound 4o, 1-(6-Acetylaminoindan-1-ylmethyl)-4-(3,4-dichlorophenyl)piperazine]
7.92	8.30	191 to 194	–	CC(=O)Nc1ccc2c(c1)C(CN1CCN(c3ccc(Cl)cc3)CC1)CC2 (stereo not drawn) [Compound 4d, 1-(6-Acetylaminoindan-1-ylmethyl)-4-(4-chlorophenyl)piperazine]
–	8.39	156 to 158	19	Nc1ccc2c(c1)C(CN1CCN(c3ccc(Cl)c(Cl)c3)CC1)CC2 (stereo not drawn) [Compound 2h, 1-(6-Aminoindan-1-ylmethyl)-4-(3,4-dichlorophenyl)piperazine]
